According to US20130236445A1, “Bromelain proteinases (Bromelainases) as chemotherapeutic agents in treating and/or preventing various types of cancer in a mammal” (Garfield Medical Group, priority 2011, published 2013):

How the values were obtained:
CD44 = conditions: in vitro; cited from earlier work
tumor cells = conditions: in vitro; cited from earlier work
TNFα, II-2 = conditions: in vitro; cited from earlier work
tumor cell [1] = conditions: in vitro; cited from earlier work
tumor cell [2] = conditions: in vitro; cited from earlier work; remark: listed apart in the source
[3] = examination of internal organs of bromelain-treated rabbits; set-up: species or system white rabbits; conditions: rabbit, in vivo
Method: One half of each organ was frozen and the other half was fixed with 10% neutral buffered formalin for 24 hours. Then the fixed organs were washed […] stepwise dehydrated with 70%, 80%, 90%, 100% ethanol and then embedded in paraffin by using Shandon-Histocentre-2. The embedded organ blocks were sectioned in 4 µm thickness with a microtome (McBain, M 820, American Optical Co. USA) and stained with hematoxylin and eosin stain (H.E. stain). The stained specimens were made transparent with xylene, and mounted with permount on microslides.

[4] = rabbit, in vivo
Method: After 8 weeks of treatment, the rabbits were anesthetized with injections of ketamine 75 mg/kg in the femoral muscle and sacrificed. Blood samples were collected from the heart of each rabbit to determine the blood analysis consisting of: complete blood count (CBC), Chemistry-7 and 24, (including Liver and renal function tests), lipid profiles (including Total cholesterol, HDL, LDL, VLDL, and triglycerides), coagulation factors consisting of; prothrombin time (PT), partial thromboplastin time (PPT), and immune-globulin-E.
All laboratory blood analysis were performed on rabbits of all 7 groups, The results were tested using student t-test and Microsoft Excel-7 programs.

internal organs, microscopic examination (H.E. stain) [3]	GGTP [4]	HDL [4]	Hb [4]	SGOT [4]	SGPT [4]	TC (total cholesterol) [4]	TRG (triglycerides) [4]	WBC [4]	Substance	CD44 expression on metastatic cells, effect (CD44)	immunocytotoxicity of lymphocytes against tumor cells, effect (tumor cells)	secretion of TNFα, II-2, effect (TNFα, II-2)	tumor cell proliferation, effect (tumor cell [1])	tumor cell invasion through extracellular matrix, effect (tumor cell [2])	laboratory blood tests, differences between groups [4]
									Ananain [Bromelain F9]	↓	↑	↑	↓	=	
no pathological abnormalities or lesions	7+—1	43.6+—16.5 mg/	11.9+—1.9 gm/dl	110.8+—30.7 u/l	71.2+—3.8 u/l	175.6+—36.8 mg/dl	92.6+—38.8 mg/dl	7.3+—2.2 k/ul	Bromelain						no differences among or within each groups
									Stem bromelain [Bromelain F4]					=	
